Experimental data: BindingDB's records for doi:10.1021/acschembio.5b00370 (University of Wisconsin-Madison, 2015)

Biological target: Probable UDP-galactopyranose mutase (Klebsiella pneumoniae, UniProt Q48481)
Assay: Fluorescence Polarization Assay
Procedure: Polarization for the fluorescein-UDP conjugated probe in the presence of inhibitors was measured on a Tecan M1000 microplate reader, exciting with 470 nm light and monitoring emission at 525 nm. Each condition was tested in triplicate in the presence of 220 nM K. pneumoniae UGM and 23.3 nM of the probe.

Chain of Probable UDP-galactopyranose mutase (Q48481 whole entry): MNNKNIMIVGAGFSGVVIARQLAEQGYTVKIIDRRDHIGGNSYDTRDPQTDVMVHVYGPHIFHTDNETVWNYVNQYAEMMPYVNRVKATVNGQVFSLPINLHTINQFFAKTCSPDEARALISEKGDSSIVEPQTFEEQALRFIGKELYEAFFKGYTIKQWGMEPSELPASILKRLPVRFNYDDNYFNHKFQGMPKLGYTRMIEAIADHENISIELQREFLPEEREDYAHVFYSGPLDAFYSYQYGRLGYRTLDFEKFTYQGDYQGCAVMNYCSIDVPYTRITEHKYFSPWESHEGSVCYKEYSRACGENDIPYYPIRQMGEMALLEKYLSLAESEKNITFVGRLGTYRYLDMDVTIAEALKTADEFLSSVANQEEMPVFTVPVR

## C=CCNc1nc(-c2cc(C)n(CCC(=O)O)c2C)cs1 [3‐{2,5‐Dimethyl‐3‐[2‐(prop‐2‐en‐1‐ylamino)‐1,3‐thiazol‐4‐yl]pyrrol‐1‐yl}propanoate (10)]
  Kd: 6 µM

## O=C(O)CC1Sc2nnc(-c3ccco3)n2N=C1c1ccccc1 (configuration not stated) [2‐[3‐(Furan‐2‐yl)‐6‐phenyl‐7H‐[1,2,4]triazolo[3,4‐b][1,3,4]thiadiazin‐7‐yl]acetate (6)]
  Kd: 43 µM
